Source: US20060069132A1, “Azolecarboxamide herbicides” (priority 2004, published 2006)

Tests used:
redroot pigweed = experiment: Test A pre-/postemergence herbicide test; format: in vivo, Amaranthus retroflexus
In short: (§1)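 Seeds sown in sandy loam received a preemergence directed soil spray of compound in non-phytotoxic solvent with surfactant; postemergence plants (2–10 cm, one- to two-leaf stage) were sprayed to runoff at the same time. After ~10 days in greenhouse, injury was rated visually versus untreated controls (0 = no effect, 100 = complete control).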

blackgrass = experiment: Test B postemergence herbicide test; format: in vivo, Alopecurus myosuroides; settings: postemergence, visual rating, scale 0 (no effect) to 100 (complete control)
In short: (§2)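 Greenhouse test; postemergence application to plants at 1–4 leaves (2–18 cm); paddy species at 2 leaves; evaluated visually vs controls at 13–15 days; scale 0–100 (100 = complete control).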

lambsquarters = experiment: Test B pre-/postemergence herbicide test; format: in vivo, Chenopodium album; settings: for Lambsquarters plant response rating: postemergence, visual rating, scale 0 (no effect) to 100 (complete control)
In short: (§3)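 Greenhouse pot assay with simultaneous preemergence (treated seed) and postemergence (2–18 cm seedlings) applications of surfactant-containing, non-phytotoxic solvent formulations. Response scored visually 13–15 days later on a 0–100 scale, 100 meaning complete control.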

rice [1] = experiment: Test B flooded paddy test; format: in vivo, Oryza sativa; settings: 1000 g ai/ha, visual rating, scale 0 to 100 (0 no effect, 100 complete control), 13 to 15 days
In short: as §2

velvetleaf [2] = experiment: Test B pre-/postemergence herbicide test; format: in vivo, Abutilon theophrasti; settings: for Velvetleaf plant response rating: postemergence, visual rating, scale 0 (no effect) to 100 (complete control)
In short: as §3

ducksalad = experiment: Test B flooded paddy test; format: in vivo, Heteranthera limosa; settings: 1000 g ai/ha, visual rating, scale 0 to 100 (0 no effect, 100 complete control), 13 to 15 days
In short: as §2

[3] = system: small flower umbrella sedge; experiment: Test B flooded paddy test; format: in vivo, Cyperus difformis; settings: 1000 g ai/ha, visual rating, scale 0 to 100 (0 no effect, 100 complete control), 13 to 15 days
In short: as §2

barnyardgrass [4] = experiment: Test A pre-/postemergence herbicide test; format: in vivo, Echinochloa crus-galli
In short: as §1

pigweed = experiment: Test B pre-/postemergence herbicide test; format: in vivo, Amaranthus retroflexus; settings: for Pigweed plant response rating: postemergence, visual rating, scale 0 (no effect) to 100 (complete control)
In short: as §3

large crabgrass [5] = experiment: Test B pre-/postemergence herbicide test; format: in vivo, Digitaria sanguinalis; settings: for Crabgrass, Large plant response rating: postemergence, visual rating, scale 0 (no effect) to 100 (complete control)
In short: as §3

cocklebur = experiment: Test B pre-/postemergence herbicide test; format: in vivo, Xanthium strumarium; settings: for Cocklebur plant response rating: postemergence, visual rating, scale 0 (no effect) to 100 (complete control)
In short: as §3

Surinam grass = experiment: Test B pre-/postemergence herbicide test; format: in vivo, Urochloa decumbens; settings: for Surinam Grass plant response rating: postemergence, visual rating, scale 0 (no effect) to 100 (complete control)
In short: as §3

barnyardgrass [6] = experiment: Test B pre-/postemergence herbicide test; format: in vivo, Echinochloa crus-galli; settings: for Barnyardgrass plant response rating: postemergence, visual rating, scale 0 (no effect) to 100 (complete control)
In short: as §3

corn = experiment: Test B pre-/postemergence herbicide test; format: in vivo, Zea mays; settings: for Corn plant response rating: postemergence, visual rating, scale 0 (no effect) to 100 (complete control)
In short: as §3

morningglory [7] = experiment: Test B pre-/postemergence herbicide test; format: in vivo, Ipomoea coccinea; settings: for Morningglory plant response rating: postemergence, visual rating, scale 0 (no effect) to 100 (complete control)
In short: as §3

large crabgrass [8] = experiment: Test A pre-/postemergence herbicide test; format: in vivo, Digitaria sanguinalis
In short: as §1

velvetleaf [9] = experiment: Test A pre-/postemergence herbicide test; format: in vivo, Abutilon theophrasti
In short: as §1

morningglory [10] = experiment: Test A pre-/postemergence herbicide test; format: in vivo, Ipomoea spp.
In short: as §1

rice [11] = experiment: Test B pre-/postemergence herbicide test; format: in vivo, Oryza sativa; settings: preemergence
In short: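 Species tested were Echinochloa crus-galli, Ipomoea coccinea, Xanthium strumarium and Oryza sativa, treated both before emergence and at the 1- to 4-leaf stage; rice and barnyardgrass were also tested under flooding at 2 leaves. Greenhouse incubation lasted 13–15 days before visual 0–100 scoring.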

wild oat = experiment: Test B postemergence herbicide test; format: in vivo, Avena fatua; settings: postemergence, visual rating, scale 0 (no effect) to 100 (complete control)
In short: (§4)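 Each value is a visual 0–100 response rating taken against controls 13 to 15 days after treatment in the greenhouse. Plants received formulated chemical postemergence at the 1- to 4-leaf stage or, in flooded paddy, at the 2-leaf stage.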

barnyardgrass [12] = experiment: Test B flooded paddy test; format: in vivo, Echinochloa crus-galli; settings: 1000 g ai/ha, visual rating, scale 0 to 100 (0 no effect, 100 complete control), 13 to 15 days
In short: as §2

wheat = experiment: Test B postemergence herbicide test; format: in vivo, Triticum aestivum; parameters: key to Wheat plant response rating: 0 = no effect, 100 = complete control; settings: postemergence, visual rating, scale 0 (no effect) to 100 (complete control)
In short: as §4

giant foxtail [13] = experiment: Test A pre-/postemergence herbicide test; format: in vivo, Setaria faberi
In short: as §1

giant foxtail [14] = experiment: Test B pre-/postemergence herbicide test; format: in vivo, Setaria faberi; settings: for Foxtail, Giant plant response rating: postemergence, visual rating, scale 0 (no effect) to 100 (complete control)
In short: as §3

[15] = Postemergence, 500 g ai/ha, 0 to 100 scale, 0 no effect, 100 complete control
[16] = Postemergence, 2000 g ai/ha, 0 to 100 scale, 0 no effect, 100 complete control
[17] = Preemergence, 2000 g ai/ha, visual rating, 0 to 100 scale (0 no effect, 100 complete control)
[18] = preemergence, 500 g ai/ha, visual injury, 0 to 100 scale (0 no effect, 100 complete control)
[19] = 125 g ai/ha, 0 = no effect, 100 = complete control, preemergence
[20] = 500 g ai/ha, visual rating 0-100, 0 no effect, 100 complete control, preemergence

## CCOC(=O)c1cccc(NC(=O)c2sc(C(C)(C)C)nc2CC)c1 [Compound 204]
Redroot pigweed; [15]
  Pigweed plant response rating: 50
Redroot pigweed; [16]
  Plant response rating, Pigweed: 60
Redroot pigweed; [17]
  Pigweed plant response rating: 10
Redroot pigweed; [18]
  Pigweed plant response rating: 0
blackgrass; 125 g ai/ha
  Blackgrass plant response rating: 20
blackgrass; 500 g ai/ha
  Blackgrass plant response rating: 20
lambsquarters; [19]
  Lambsquarters plant response rating (0 to 100 scale): 0
lambsquarters; [20]
  Plant response rating, Lambsquarters: 0
lambsquarters; 125 g ai/ha
  Lambsquarters plant response rating: 30
lambsquarters; 500 g ai/ha
  Lambsquarters plant response rating: 50
Rice [1]
  Rice plant response rating: 30
Velvetleaf [2]; [19]
  Velvetleaf plant response rating (0 to 100 scale): 0
Velvetleaf [2]; [20]
  Plant response rating, Velvetleaf: 0
Velvetleaf [2]; 125 g ai/ha
  Velvetleaf plant response rating: 60
Velvetleaf [2]; 500 g ai/ha
  Velvetleaf plant response rating: 70
ducksalad
  Ducksalad plant response rating: 40
[3]
  Sedge, Umbrella plant response rating: 80
Barnyardgrass [4]; [15]
  Barnyardgrass plant response rating: 25
Barnyardgrass [4]; [16]
  Plant response rating, Barnyardgrass: 30
Barnyardgrass [4]; [17]
  Barnyardgrass plant response rating: 5
Barnyardgrass [4]; [18]
  Barnyardgrass plant response rating: 0
pigweed; [19]
  Pigweed plant response rating (0 to 100 scale): 0
pigweed; [20]
  Plant response rating, Pigweed: 10
pigweed; 125 g ai/ha
  Pigweed plant response rating: 50
pigweed; 500 g ai/ha
  Pigweed plant response rating: 70
Large crabgrass [5]; [19]
  Crabgrass, Large plant response rating (0 to 100 scale): 0
Large crabgrass [5]; [20]
  Plant response rating, Crabgrass, Large: 0
Large crabgrass [5]; 125 g ai/ha
  Crabgrass, Large plant response rating: 10
Large crabgrass [5]; 500 g ai/ha
  Crabgrass, Large plant response rating: 10
cocklebur; [19]
  Cocklebur plant response rating (0 to 100 scale): 0
cocklebur; [20]
  Plant response rating, Cocklebur: 0
cocklebur; 125 g ai/ha
  Cocklebur plant response rating: 90
cocklebur; 500 g ai/ha
  Cocklebur plant response rating: 90
Surinam grass; [19]
  Surinam Grass plant response rating (0 to 100 scale): 0
Surinam grass; [20]
  Plant response rating, Surinam Grass: 0
Surinam grass; 125 g ai/ha
  Surinam Grass plant response rating: 20
Surinam grass; 500 g ai/ha
  Surinam Grass plant response rating: 50
Barnyardgrass [6]; [19]
  Barnyardgrass plant response rating (0 to 100 scale): 0
Barnyardgrass [6]; [20]
  Plant response rating, Barnyardgrass: 0
Barnyardgrass [6]; 125 g ai/ha
  Barnyardgrass plant response rating: 10
Barnyardgrass [6]; 500 g ai/ha
  Barnyardgrass plant response rating: 10
corn; [19]
  Corn plant response rating (0 to 100 scale): 0
corn; [20]
  Plant response rating, Corn: 0
corn; 125 g ai/ha
  Corn plant response rating: 20
corn; 500 g ai/ha
  Corn plant response rating: 20
Morningglory [7]; [20]
  Plant response rating, Morningglory: 10
Morningglory [7]; 125 g ai/ha
  Morningglory plant response rating: 20
Morningglory [7]; 500 g ai/ha
  Morningglory plant response rating: 40
Large crabgrass [8]; [15]
  Crabgrass, Large plant response rating: 30
Large crabgrass [8]; [16]
  Plant response rating, Crabgrass, Large: 30
Large crabgrass [8]; [17]
  Crabgrass, Large plant response rating: 10
Large crabgrass [8]; [18]
  Crabgrass, Large plant response rating: 0
Velvetleaf [9]; [15]
  Velvetleaf plant response rating: 40
Velvetleaf [9]; [16]
  Plant response rating, Velvetleaf: 60
Velvetleaf [9]; [17]
  Velvetleaf plant response rating: 25
Velvetleaf [9]; [18]
  Velvetleaf plant response rating: 5
Morningglory [10]; [15]
  Morningglory plant response rating: 20
Morningglory [10]; [16]
  Plant response rating, Morningglory: 15
Morningglory [10]; [17]
  Morningglory plant response rating: 25
Morningglory [10]; [18]
  Morningglory plant response rating: 10
Rice [11]; 125 g ai/ha, 0 = no effect, 100 = complete control
  Rice plant response rating (0 to 100 scale): 0
Rice [11]; 500 g ai/ha, visual rating 0-100, 0 no effect, 100 complete control
  Plant response rating, Rice: 0
Wild oat; 125 g ai/ha
  Oat, Wild plant response rating: 10
Wild oat; 500 g ai/ha
  Oat, Wild plant response rating: 20
Barnyardgrass [12]
  Barnyardgrass plant response rating: 20
wheat; 125 g ai/ha
  Wheat plant response rating: 10
wheat; 500 g ai/ha
  Wheat plant response rating: 30
Giant foxtail [13]; [15]
  Foxtail, Giant plant response rating: 25
Giant foxtail [13]; [16]
  Plant response rating, Foxtail, Giant: 25
Giant foxtail [13]; [17]
  Foxtail, Giant plant response rating: 10
Giant foxtail [13]; [18]
  Foxtail, Giant plant response rating: 0
Giant foxtail [14]; [19]
  Foxtail, Giant plant response rating (0 to 100 scale): 0
Giant foxtail [14]; [20]
  Plant response rating, Foxtail, Giant: 0
Giant foxtail [14]; 125 g ai/ha
  Foxtail, Giant plant response rating: 10
Giant foxtail [14]; 500 g ai/ha
  Foxtail, Giant plant response rating: 20
